Source: patent publication US20250368666A1, “INDAZOLE COMPOUNDS” (TYRA BIOSCIENCES, INC., priority 2022, published 2025)

Experiments:
FGFR1 = target: T1, FGFR1 (Homo sapiens, UniProt P11362); assay: Kinase binding assay (kinase-tagged T7 phage, affinity beads, qPCR), Kd; details: read-out: FGFR1 (Kd nM)
T1 construct: made in house; host or cells: E. coli (BL21-derived), T7 phage
In short: (§1)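 Phage-tagged kinase capture on small-molecule affinity resin, compound competition, qPCR quantitation; Kd from Levenberg-Marquardt Hill fit.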

FGFR2 = target: T2, FGFR2 (Homo sapiens, UniProt P21802); assay: as above; details: read-out: FGFR2 (Kd nM)
T2 construct: made in house; host or cells: E. coli (BL21-derived), T7 phage
In short: as §1

FGFR3 = target: T3, FGFR3 (Homo sapiens, UniProt P22607); assay: as above; details: read-out: FGFR3 (Kd nM)
T3 construct: made in house; host or cells: E. coli (BL21-derived), T7 phage
In short: as §1

FGFR3 (V555M) = target: T4, FGFR3 (V555M) (Homo sapiens, UniProt P22607, V555M); assay: as above; details: V555M mutant; read-out: FGFR3 (V555M) (Kd nM)
T4 construct: made in house; host or cells: E. coli (BL21-derived), T7 phage
In short: as §1

FGFR4 = target: T5, FGFR4 (Homo sapiens, UniProt P22455); assay: as above; details: read-out: FGFR4 (Kd nM)
T5 construct: made in house; host or cells: E. coli (BL21-derived), T7 phage
In short: as §1

[1] = tested on: KATO-III cell line (FGFR2 amplification); assay: Cancer cell line cell viability assay (Cell Titer-Glo), 72 hr; format: cell-based; details: Homo sapiens, KATO III
In short: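 Cells seeded at 5,000-20,000/well, incubated overnight, then treated with a 9-dose, 4-fold dilution series from 3 μM in triplicate at 37° C, 5% CO2. Viability read by Cell Titer-Glo 2.0 luminescence as percent of DMSO control; IC50 from 4-parameter variable-slope sigmoidal fit.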

[2] = tested on: KG-1 cell line (FGFR 1-fusion); assay: as above; format: cell-based; details: Homo sapiens, KG-1, KG-1 cell line (FGFR1-fusion)
In short: (§2)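 5,000-20,000 cells/well o/n; cpd 9-pt 4x dil from 3 μM, n=3; 37° C/5% CO2; CTG 2.0 lumi; % DMSO ctrl; 4PL IC50.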

[3] = tested on: RT112/84 cell line (FGFR3-fusion); assay: as above; format: cell-based; details: Homo sapiens, RT112/84, RT112/84 cell line (FGFR3-fusion)
In short: as §2

[4] = tested on: HuH7 cell line (FGF19 amplification); assay: Cancer cell line cell viability assay (Cell Titer-Glo), 120 hr; format: cell-based; details: Homo sapiens, Huh-7
In short: as §2

T1 sequence (P11362 22-822): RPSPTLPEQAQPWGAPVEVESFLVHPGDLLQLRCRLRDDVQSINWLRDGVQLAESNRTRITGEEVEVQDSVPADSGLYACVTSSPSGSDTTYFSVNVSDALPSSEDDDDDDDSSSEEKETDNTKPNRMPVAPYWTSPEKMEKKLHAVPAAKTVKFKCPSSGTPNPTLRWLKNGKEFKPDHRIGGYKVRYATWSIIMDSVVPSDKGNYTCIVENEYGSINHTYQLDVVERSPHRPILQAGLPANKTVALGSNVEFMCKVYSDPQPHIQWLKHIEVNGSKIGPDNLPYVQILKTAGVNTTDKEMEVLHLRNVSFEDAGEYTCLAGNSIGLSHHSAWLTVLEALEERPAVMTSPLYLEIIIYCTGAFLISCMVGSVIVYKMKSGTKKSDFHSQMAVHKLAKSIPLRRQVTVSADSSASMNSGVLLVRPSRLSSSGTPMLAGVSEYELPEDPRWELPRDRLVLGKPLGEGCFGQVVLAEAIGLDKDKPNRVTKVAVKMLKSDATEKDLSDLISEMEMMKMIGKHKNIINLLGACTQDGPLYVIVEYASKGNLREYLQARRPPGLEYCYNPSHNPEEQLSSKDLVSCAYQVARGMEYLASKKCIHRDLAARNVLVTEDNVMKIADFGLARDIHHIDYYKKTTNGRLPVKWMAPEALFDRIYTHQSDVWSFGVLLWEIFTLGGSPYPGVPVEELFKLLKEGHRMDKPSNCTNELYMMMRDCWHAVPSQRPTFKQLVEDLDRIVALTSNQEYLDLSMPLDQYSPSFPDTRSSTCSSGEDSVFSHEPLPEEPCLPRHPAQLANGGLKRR
T5 sequence (P22455 22-802): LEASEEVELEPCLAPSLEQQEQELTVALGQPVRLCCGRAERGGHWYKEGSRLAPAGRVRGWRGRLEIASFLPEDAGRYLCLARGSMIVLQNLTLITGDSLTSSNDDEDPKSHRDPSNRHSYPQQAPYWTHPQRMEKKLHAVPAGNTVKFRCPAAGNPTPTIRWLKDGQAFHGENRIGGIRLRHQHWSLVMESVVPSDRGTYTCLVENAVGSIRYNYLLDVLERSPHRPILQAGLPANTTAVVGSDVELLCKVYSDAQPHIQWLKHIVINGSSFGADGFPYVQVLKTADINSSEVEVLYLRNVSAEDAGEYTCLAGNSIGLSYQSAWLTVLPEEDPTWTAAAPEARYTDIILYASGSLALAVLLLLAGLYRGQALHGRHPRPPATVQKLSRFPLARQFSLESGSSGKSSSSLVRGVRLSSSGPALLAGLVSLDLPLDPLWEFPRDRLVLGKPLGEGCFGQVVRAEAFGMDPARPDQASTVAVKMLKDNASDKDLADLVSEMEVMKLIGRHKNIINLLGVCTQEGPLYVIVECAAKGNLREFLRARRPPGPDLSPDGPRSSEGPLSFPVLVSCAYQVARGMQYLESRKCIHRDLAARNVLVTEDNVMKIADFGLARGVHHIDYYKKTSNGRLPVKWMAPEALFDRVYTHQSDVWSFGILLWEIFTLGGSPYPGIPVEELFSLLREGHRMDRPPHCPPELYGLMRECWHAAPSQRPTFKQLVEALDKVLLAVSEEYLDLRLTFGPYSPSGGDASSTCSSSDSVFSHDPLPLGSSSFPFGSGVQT
T4 sequence (P22607 23-806 V555M): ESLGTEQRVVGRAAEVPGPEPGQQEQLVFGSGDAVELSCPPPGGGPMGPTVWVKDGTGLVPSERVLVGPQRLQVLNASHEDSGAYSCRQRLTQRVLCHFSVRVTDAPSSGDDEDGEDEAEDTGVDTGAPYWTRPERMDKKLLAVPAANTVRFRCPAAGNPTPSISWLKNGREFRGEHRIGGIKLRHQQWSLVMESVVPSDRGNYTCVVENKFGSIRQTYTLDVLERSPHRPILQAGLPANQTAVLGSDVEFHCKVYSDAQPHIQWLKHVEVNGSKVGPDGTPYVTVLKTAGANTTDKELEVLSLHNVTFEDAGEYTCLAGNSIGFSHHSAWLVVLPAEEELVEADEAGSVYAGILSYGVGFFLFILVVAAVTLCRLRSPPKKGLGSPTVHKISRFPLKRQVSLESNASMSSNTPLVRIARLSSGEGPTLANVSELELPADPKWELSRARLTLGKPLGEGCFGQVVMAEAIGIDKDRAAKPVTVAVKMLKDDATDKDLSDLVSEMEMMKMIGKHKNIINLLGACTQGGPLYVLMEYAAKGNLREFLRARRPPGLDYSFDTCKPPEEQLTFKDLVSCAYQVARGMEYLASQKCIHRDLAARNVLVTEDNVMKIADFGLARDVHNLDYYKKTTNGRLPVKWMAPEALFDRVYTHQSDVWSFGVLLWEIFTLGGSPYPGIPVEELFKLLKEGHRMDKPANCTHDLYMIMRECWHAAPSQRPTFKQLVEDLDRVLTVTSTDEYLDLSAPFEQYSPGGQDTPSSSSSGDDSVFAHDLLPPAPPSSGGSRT
T2 sequence (P21802 22-821): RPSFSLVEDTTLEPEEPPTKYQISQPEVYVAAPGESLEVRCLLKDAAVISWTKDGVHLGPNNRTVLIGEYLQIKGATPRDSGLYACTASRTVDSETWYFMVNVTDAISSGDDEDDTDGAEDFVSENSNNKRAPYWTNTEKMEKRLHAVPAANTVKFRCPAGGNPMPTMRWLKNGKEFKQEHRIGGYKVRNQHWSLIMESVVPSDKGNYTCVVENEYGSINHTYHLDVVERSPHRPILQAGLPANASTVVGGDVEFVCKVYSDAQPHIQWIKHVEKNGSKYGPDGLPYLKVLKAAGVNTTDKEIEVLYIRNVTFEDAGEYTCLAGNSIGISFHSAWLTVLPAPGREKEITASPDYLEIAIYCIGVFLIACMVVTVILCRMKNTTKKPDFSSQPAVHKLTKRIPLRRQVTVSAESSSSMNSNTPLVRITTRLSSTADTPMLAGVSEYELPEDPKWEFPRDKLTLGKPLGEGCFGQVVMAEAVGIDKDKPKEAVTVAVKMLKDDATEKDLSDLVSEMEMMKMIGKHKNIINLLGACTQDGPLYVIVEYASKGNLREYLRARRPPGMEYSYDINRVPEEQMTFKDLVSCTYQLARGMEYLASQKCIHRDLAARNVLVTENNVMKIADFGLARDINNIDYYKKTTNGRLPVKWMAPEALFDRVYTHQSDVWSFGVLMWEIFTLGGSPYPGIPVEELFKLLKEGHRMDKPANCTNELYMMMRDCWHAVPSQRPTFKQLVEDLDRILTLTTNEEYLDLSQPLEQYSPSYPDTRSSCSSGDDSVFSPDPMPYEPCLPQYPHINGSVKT
T3 sequence (P22607 23-806): as the sequence (P22607 23-806 V555M) above, with M533V counted along it

| Kd (FGFR1) [nM] | Kd (FGFR2) [nM] | Kd (FGFR3) [nM] | Kd (FGFR3 (V555M)) [nM] | Kd (FGFR4) [nM] | IC50 [1] [nM] | IC50 [2] [nM] | IC50 [3] [nM] | IC50 [4] [nM] | Compound |
| --- | --- | --- | --- | --- | --- | --- | --- | --- | --- |
| 1 to 50 | 1 to 50 | 1 to 50 | 1 to 50 | 1 to 50 | 50 to 200 | 50 to 200 | 0.1 to 50 | 0.1 to 50 | COc1cc2[nH]nc(-c3cnc(N4CC(C)(N(C)C)C4)c(C#N)c3)c2cc1O[C@H](C)c1c(Cl)cncc1Cl [Example 10, 5-[5-[(1R)-1-(3,5-dichloro-4-pyridyl)ethoxy]-6-methoxy-1H-indazol-3-yl]-2-[3-(dimethylamino)-3-methyl-azetidin-1-yl]pyridine-3-carbonitrile] |
| 1 to 50 | 1 to 50 | 1 to 50 | 1 to 50 | 1 to 50 | 50 to 200 | 50 to 200 | 0.1 to 50 | 0.1 to 50 | COc1cc2[nH]nc(-c3cnc(N4CC(C)(N5CCCC5)C4)c(C#N)c3)c2cc1O[C@H](C)c1c(Cl)cncc1Cl [Example 15, 5-[5-[(1R)-1-(3,5-dichloro-4-pyridyl)ethoxy]-6-methoxy-1H-indazol-3-yl]-2-(3-methyl-3-pyrrolidin-1-yl-azetidin-1-yl)pyridine-3-carbonitrile] |
| 1 to 50 | 1 to 50 | 1 to 50 | 1 to 50 | 1 to 50 | 200 to 1000 | 200 to 1000 | 50 to 200 | 0.1 to 50 | C[C@@H](Oc1ccc2[nH]nc(-c3cnc(N4CC(C)(N5CCCC5)C4)c(C#N)c3)c2c1)c1c(Cl)cncc1Cl [Example 17, (R)-5-(5-(1-(3,5-Dichloropyridin-4-yl)ethoxy)-1H-indazol-3-yl)-2-(3-methyl-3-(pyrrolidin-1-yl)azetidin-1-yl)nicotinonitrile] |
| 50 to 300 | 300 to 1000 | 1 to 50 | 1 to 50 | 1 to 50 | > 1000 | 200 to 1000 | 200 to 1000 | 0.1 to 50 | Cc1ncc(Cl)c([C@@H](C)Oc2ccc3[nH]nc(-c4cnc(N5CC(C)(NC6CCC6)C5)c(C#N)c4)c3c2)c1Cl [Example 19, 2-[3-(cyclobutylamino)-3-methyl-azetidin-1-yl]-5-[5-[(1R)-1-(3,5-dichloro-2-methyl-4-pyridyl)ethoxy]-1H-indazol-3-yl]pyridine-3-carbonitrile] |
| 1 to 50 | 1 to 50 | 1 to 50 | 1 to 50 | 1 to 50 | 50 to 200 | 200 to 1000 | 50 to 200 | 0.1 to 50 | C[C@@H](Oc1ccc2[nH]nc(-c3cnc(N4CC(C)(N[C@H]5CCOC5)C4)c(C#N)c3)c2c1)c1c(Cl)cncc1Cl [Example 20, 5-(5-((R)-1-(3,5-dichloropyridin-4-yl)ethoxy)-1H-indazol-3-yl)-2-(3-methyl-3-(((S)-tetrahydrofuran-3-yl)amino)azetidin-1-yl)nicotinonitrile] |
| 50 to 300 | 50 to 300 | 1 to 50 | 1 to 50 | 1 to 50 | 200 to 1000 | 200 to 1000 | 50 to 200 | 50 to 200 | C[C@@H](Oc1ccc2[nH]nc(-c3cnc(N4CC(C)(NCCC(F)F)C4)c(C#N)c3)c2c1)c1c(Cl)cncc1Cl [Example 21, (R)-5-(5-(1-(3,5-dichloropyridin-4-yl)ethoxy)-1H-indazol-3-yl)-2-(3-((3,3-difluoropropyl)amino)-3-methylazetidin-1-yl)nicotinonitrile] |
| 50 to 300 | 50 to 300 | 1 to 50 | 1 to 50 | 1 to 50 | 200 to 1000 | 200 to 1000 | 50 to 200 | 0.1 to 50 | C[C@@H](Oc1ccc2[nH]nc(-c3cnc(N4CC(C)(NCC(F)F)C4)c(C#N)c3)c2c1)c1c(Cl)cncc1Cl [Example 22, (R)-5-(5-(1-(3,5-dichloropyridin-4-yl)ethoxy)-1H-indazol-3-yl)-2-(3-((2,2-difluoroethyl)amino)-3-methylazetidin-1-yl)nicotinonitrile] |
| 1 to 50 | 1 to 50 | 1 to 50 | 1 to 50 | 1 to 50 | 200 to 1000 | 200 to 1000 | 50 to 200 | 0.1 to 50 | C[C@@H](Oc1ccc2[nH]nc(-c3cnc(N4CC(C)(CN(C)S(C)(=O)=O)C4)c(C#N)c3)c2c1)c1c(Cl)cncc1Cl [Example 23, (R)-N-((1-(3-cyano-5-(5-(1-(3,5-dichloropyridin-4-yl)ethoxy)-1H-indazol-3-yl)pyridin-2-yl)-3-methylazetidin-3-yl)methyl)-N-methylmethanesulfona-mide] |
| 1 to 50 | 1 to 50 | 1 to 50 | 1 to 50 | 1 to 50 | 50 to 200 | 50 to 200 | 0.1 to 50 | 0.1 to 50 | COc1cc2[nH]nc(-c3cnc(N4CC(C)(N[C@H]5CCOC5)C4)c(C#N)c3)c2cc1O[C@H](C)c1c(Cl)cncc1Cl [Example 24, 5-(5-((R)-1-(3,5-dichloropyridin-4-yl)ethoxy)-6-methoxy-1H-indazol-3-yl)-2-(3-methyl-3-(((S)-tetrahydrofuran-3-yl)amino)azetidin-1-yl)nicotinonitrile] |
| 1 to 50 | 1 to 50 | 1 to 50 | 1 to 50 | 1 to 50 | 50 to 200 | 50 to 200 | 0.1 to 50 | 0.1 to 50 | COc1cc2[nH]nc(-c3cnc(N4CC(C)(N[C@@H]5CCOC5)C4)c(C#N)c3)c2cc1O[C@H](C)c1c(Cl)cncc1Cl [Example 25, 5-(5-((R)-1-(3,5-dichloropyridin-4-yl)ethoxy)-6-methoxy-1H-indazol-3-yl)-2-(3-methyl-3-(((R)-tetrahydrofuran-3-yl)amino)azetidin-1-yl)nicotinonitrile] |
| 1 to 50 | 1 to 50 | 1 to 50 | 1 to 50 | 1 to 50 | 50 to 200 | 0.1 to 50 | 0.1 to 50 | 0.1 to 50 | COc1cc2[nH]nc(-c3cnc(N4CC(C)(N5CCC5)C4)c(C#N)c3)c2cc1O[C@H](C)c1c(Cl)cncc1Cl [Example 26, (R)-5-(5-(1-(3,5-dichloropyridin-4-yl)ethoxy)-6-methoxy-1H-indazol-3-yl)-2-(3′-methyl-[1,3′-biazetidin]-1′-yl)nicotinonitrile] |
| 1 to 50 | 50 to 300 | 1 to 50 | 1 to 50 | 1 to 50 | 200 to 1000 | 200 to 1000 | 50 to 200 | 50 to 200 | C[C@@H](Oc1ccc2[nH]nc(-c3cnc(N4CC(C)(NCC5CC5)C4)c(C#N)c3)c2c1)c1c(Cl)cncc1Cl [Example 27, 2-[3-(Cyclopropylmethylamino)-3-methyl-azetidin-1-yl]-5-[5-[(1R)-1-(3,5-dichloro-4-pyridyl)ethoxy]-1H-indazol-3-yl]pyridine-3-carbonitrile] |
| 1 to 50 | 1 to 50 | 1 to 50 | 1 to 50 | 1 to 50 | 50 to 200 | 50 to 200 | 0.1 to 50 | 0.1 to 50 | C[C@@H](Oc1ccc2[nH]nc(-c3cnc(N4CC(C)(N5CCC5)C4)c(C#N)c3)c2c1)c1c(Cl)cncc1Cl [Example 28, (R)-5-(5-(1-(3,5-dichloropyridin-4-yl)ethoxy)-1H-indazol-3-yl)-2-(3′-methyl-[1,3′-biazetidin]-1′-yl)nicotinonitrile] |
| 50 to 300 | 1 to 50 | 1 to 50 | 1 to 50 | 1 to 50 | 50 to 200 | 200 to 1000 | 50 to 200 | 0.1 to 50 | C[C@@H](Oc1ccc2[nH]nc(-c3cnc(N4CC(C)(N[C@@H]5CCOC5)C4)c(C#N)c3)c2c1)c1c(Cl)cncc1Cl [Example 33, 5-(5-((R)-1-(3,5-dichloropyridin-4-yl)ethoxy)-1H-indazol-3-yl)-2-(3-methyl-3-(((R)-tetrahydrofuran-3-yl)amino)azetidin-1-yl)nicotinonitrile] |
| 50 to 300 | 50 to 300 | 1 to 50 | 1 to 50 | 1 to 50 | 200 to 1000 | 200 to 1000 | 50 to 200 | 0.1 to 50 | C[C@@H](Oc1ccc2[nH]nc(-c3cnc(N4CC(C)(N5CCOCC5)C4)c(C#N)c3)c2c1)c1c(Cl)cncc1Cl [Example 34, 5-[5-[(1R)-1-(3,5-dichloro-4-pyridyl)ethoxy]-1H-indazol-3-yl]-2-(3-methyl-3-morpholino-azetidin-1-yl)pyridine-3-carbonitrile] |
